Results: ChEMBL document CHEMBL1150518, “Balanced angiotensin II receptor antagonists. III. The effects of substitution at the imidazole 5-position” (Bioorg Med Chem Lett, 1994)

Tests used:
[1] = target: T1, Type-1 angiotensin II receptor (Homo sapiens, UniProt P30556); test: Binding affinity for Angiotensin II receptor, type 1
T1 sequence (P30556 whole entry): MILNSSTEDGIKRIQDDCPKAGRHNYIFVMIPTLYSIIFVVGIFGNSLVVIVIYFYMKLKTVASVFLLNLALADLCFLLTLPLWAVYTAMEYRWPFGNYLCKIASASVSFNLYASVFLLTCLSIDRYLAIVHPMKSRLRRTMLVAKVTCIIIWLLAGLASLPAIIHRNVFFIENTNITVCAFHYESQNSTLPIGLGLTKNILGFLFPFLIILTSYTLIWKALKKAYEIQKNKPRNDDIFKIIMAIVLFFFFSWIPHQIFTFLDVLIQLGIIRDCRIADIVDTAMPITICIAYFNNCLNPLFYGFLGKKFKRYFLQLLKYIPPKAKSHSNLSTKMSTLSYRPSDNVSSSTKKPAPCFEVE

[2] = target: T2, Type-2 angiotensin II receptor (Homo sapiens, UniProt P50052); test: Binding affinity for angiotensin II AT-2 receptor
T2 sequence (P50052 whole entry): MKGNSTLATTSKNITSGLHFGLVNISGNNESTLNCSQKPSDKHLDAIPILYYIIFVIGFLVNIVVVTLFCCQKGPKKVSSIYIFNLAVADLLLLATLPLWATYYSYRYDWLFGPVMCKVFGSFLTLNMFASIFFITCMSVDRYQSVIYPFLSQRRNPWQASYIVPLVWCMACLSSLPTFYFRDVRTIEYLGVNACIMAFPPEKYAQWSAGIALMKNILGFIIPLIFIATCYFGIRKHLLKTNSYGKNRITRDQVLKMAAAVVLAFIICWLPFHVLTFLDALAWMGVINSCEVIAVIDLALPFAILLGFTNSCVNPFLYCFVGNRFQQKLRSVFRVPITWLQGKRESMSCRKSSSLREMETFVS

Row | Compound | IC50 [1] [nM] | IC50 [2] [nM]
1 | CCCc1nc(CC)c(C(=O)OCc2ccc(C(=O)c3ccccc3)cc2)n1Cc1ccc(-c2ccccc2-c2nn[nH]n2)cc1 | 9 | 2000
2 | CCCc1nc(CC)c(C(=O)OCc2ccccc2NC(=O)c2ccccc2)n1Cc1ccc(-c2ccccc2S(=O)(=O)NC(=O)OCCC(C)C)cc1F | 0.3 | 1
3 | CCCc1nc(CC)c(C(=O)OCCCCOc2ccccc2)n1Cc1ccc(-c2ccccc2S(=O)(=O)NC(=O)OCCC(C)C)cc1F | 0.2 | 2
4 | CCCc1nc(CC)c(C(=O)OCCN(C(=O)OCCC(C)C)c2ccccc2)n1Cc1ccc(-c2ccccc2S(=O)(=O)NC(=O)OCCC(C)C)cc1F | 0.2 | 4
5 | CCCc1nc(CC)c(C(=O)OCc2ccccc2-c2ccccn2)n1Cc1ccc(-c2ccccc2S(=O)(=O)NC(=O)OCCC(C)C)cc1F | 0.3 | 3
6 | CCCc1nc(CC)c(C(=O)OCc2ccccc2C(=O)c2ccccc2)n1Cc1ccc(-c2ccccc2S(=O)(=O)NC(=O)OC)cc1 | 0.6 | 10
7 | CCCc1nc(CC)c(C(=O)OCCN(C(=O)c2ccccc2)c2ccccc2)n1Cc1ccc(-c2ccccc2S(=O)(=O)NC(=O)OCCC(C)C)cc1F | 0.1 | 2
8 | CCCc1nc(CC)c(C(=O)OCCC(=O)Nc2ccccc2)n1Cc1ccc(-c2ccccc2S(=O)(=O)NC(=O)OCCC(C)C)cc1F | 0.1 | 3
9 | CCCCN(Cc1ccccc1)C(=O)c1ccc(COC(=O)c2c(CC)nc(CCC)n2Cc2ccc(-c3ccccc3-c3nn[nH]n3)cc2)cc1 | 8 | 200
10 | CCCc1nc(CC)c(C(=O)OCc2cccc(C(=O)N(c3ccccc3)c3ccccc3)c2)n1Cc1ccc(-c2ccccc2-c2nn[nH]n2)cc1 | 30 | 300
11 | CCCCN(CCCC)C(=O)CCCOC(=O)c1c(CC)nc(CCC)n1Cc1ccc(-c2ccccc2-c2nnn[nH]2)cc1 | 30 | 500
12 | CCCc1nc(CC)c(C(=O)NCCCOc2ccccc2)n1Cc1ccc(-c2ccccc2S(=O)(=O)NC(=O)OCCC(C)C)cc1F | 0.3 | 9
13 | CCCOC(=O)NS(=O)(=O)c1ccccc1-c1ccc(Cn2c(CCC)nc(CC)c2C(=O)OCc2ccccc2-c2cncnc2)c(F)c1 | 0.8 | 10
14 | CCCCN(Cc1ccccc1)C(=O)CCCOC(=O)c1c(CC)nc(CCC)n1Cc1ccc(-c2ccccc2-c2nn[nH]n2)cc1 | 10 | 300
15 | CCCc1nc(CC)c(C(=O)OCc2ccccc2C(=O)c2ccccc2)n1Cc1ccc(-c2ccccc2S(=O)(=O)NC(=O)OCCC(C)C)cc1 | 0.35 | 1.9
16 | CCCc1nc(CC)c(C(=O)OCc2ccc(-c3ccccc3)cc2)n1Cc1ccc(-c2ccccc2-c2nnn[nH]2)cc1 | 3 | 3000
17 | CCCc1nc(CC)c(C(=O)OCc2ccccc2-c2ccccc2)n1Cc1ccc(-c2ccccc2-c2nnn[nH]2)cc1 | 3 | 2000
18 | CCCOC(=O)NS(=O)(=O)c1ccccc1-c1ccc(Cn2c(CCC)nc(CC)c2C(=O)OCc2ccccc2-c2cccs2)c(F)c1 | 0.5 | 3
19 | CCCCCOC(=O)NS(=O)(=O)c1ccccc1-c1ccc(Cn2c(CCC)nc(CC)c2C(=O)OCCC(=O)Nc2ccccc2)c(F)c1 | 0.1 | 1
20 | CCCc1nc(CC)c(C(=O)NCc2ccccc2Sc2ccccc2)n1Cc1ccc(-c2ccccc2S(=O)(=O)NC(=O)OCCC(C)C)cc1F | 0.4 | 3
21 | CCCc1nc(CC)c(C(=O)OCc2ccccc2OCCC(C)C)n1Cc1ccc(-c2ccccc2S(=O)(=O)NC(=O)OCCC(C)C)cc1F | 3 | 10
22 | CCCc1nc(CC)c(C(=O)OCCCS(=O)(=O)c2ccccc2)n1Cc1ccc(-c2ccccc2S(=O)(=O)NC(=O)OCCC(C)C)cc1F | 0.2 | 2
23 | CCCCCCCOC(=O)NS(=O)(=O)c1ccccc1-c1ccc(Cn2c(CCC)nc(CC)c2C(=O)OCc2ccccc2OC)c(F)c1 | 1 | 10
24 | CCCc1nc(CC)c(C(=O)OCc2ccc(C(=O)N(c3ccccc3)c3ccccc3)cc2)n1Cc1ccc(-c2ccccc2-c2nnn[nH]2)cc1 | 20 | 200
25 | CCCCN(Cc1ccccc1)C(=O)C#CCOC(=O)c1c(CC)nc(CCC)n1Cc1ccc(-c2ccccc2-c2nnn[nH]2)cc1 | 10 | 400
26 | CCCc1nc(CC)c(C(=O)OCc2ccccc2C(=O)C(C)(C)C)n1Cc1ccc(-c2ccccc2S(=O)(=O)NC(=O)OCCC(C)C)cc1F | 0.3 | 3

Row | Compound | IC50 [1] [nM] | IC50 [2] [nM]
27 | CCCOC(=O)NS(=O)(=O)c1ccccc1-c1ccc(Cn2c(CCC)nc(CC)c2C(=O)OCc2cccc(C(=O)c3ccccc3)c2)c(F)c1 | 0.3 | 10
28 | CCCc1nc(CC)c(C(=O)OCCN2C(=O)c3ccccc3C2=O)n1Cc1ccc(-c2ccccc2S(=O)(=O)NC(=O)OCCC(C)C)cc1F | 0.2 | 7
29 | CCCc1nc(CC)c(C(=O)OCCC[S+]([O-])c2ccccc2)n1Cc1ccc(-c2ccccc2S(=O)(=O)NC(=O)OCCC(C)C)cc1F (centres undefined) | 0.2 | 1
30 | CCCc1nc(CC)c(C(=O)NCc2ccccc2[S+]([O-])c2ccccc2)n1Cc1ccc(-c2ccccc2S(=O)(=O)NC(=O)OCCC(C)C)cc1F (centres undefined) | 0.6 | 5
31 | CCCc1nc(CC)c(C(=O)OCCCC(=O)Nc2ccccc2)n1Cc1ccc(-c2ccccc2S(=O)(=O)NC(=O)OCCC(C)C)cc1F | 0.2 | 5
32 | CCCc1nc(CC)c(C(=O)OCCCOc2ccccc2)n1Cc1ccc(-c2ccccc2S(=O)(=O)NC(=O)OCCC(C)C)cc1F | 0.1 | 2
33 | CCCCOC(=O)NS(=O)(=O)c1ccccc1-c1ccc(Cn2c(CCC)nc(CC)c2C(=O)NCCCOc2ccccc2)c(F)c1 | 0.4 | 20
34 | CCCc1nc(CC)c(C(=O)OCc2ccccc2C(=O)c2ccccc2)n1Cc1ccc(-c2ccccc2S(=O)(=O)NC(=O)OCCc2ccccc2)cc1 | 0.74 | 2.1
35 | CCCc1nc(CC)c(C(=O)OCc2ccccc2C(=O)c2ccccc2)n1Cc1ccc(-c2ccccc2-c2nnn[nH]2)cc1 | 2 | 300
36 | CCCc1nc(CC)c(C(=O)OCc2ccccc2OC)n1Cc1ccc(-c2ccccc2S(=O)(=O)NC(=O)OCCC(C)C)cc1F | 0.1 | 1
37 | CCCc1nc(CC)c(C(=O)OCc2ccccc2-c2ccccc2)n1Cc1ccc(-c2ccccc2S(=O)(=O)NC(=O)OCCC(C)C)cc1F | 3 | 9
38 | CCCc1nc(CC)c(C(=O)OCCCN2C(=O)c3ccccc3C2=O)n1Cc1ccc(-c2ccccc2S(=O)(=O)NC(=O)OCCC(C)C)cc1F | 0.1 | 3
39 | CCCc1nc(CC)c(C(=O)OCc2ccccc2C(=O)Nc2ccccc2)n1Cc1ccc(-c2ccccc2S(=O)(=O)NC(=O)OCCC(C)C)cc1F | 0.3 | 1
40 | CCCCN(Cc1ccccc1)C(=O)CCCOC(=O)c1c(CC)nc(CCC)n1Cc1ccc(-c2ccccc2S(=O)(=O)NC(=O)OCCC(C)C)cc1F | 0.2 | 5
41 | CCCc1nc(CC)c(C(=O)OCC(=O)c2ccccc2)n1Cc1ccc(-c2ccccc2S(=O)(=O)NC(=O)OCCC(C)C)cc1F | 0.1 | 2
42 | CCCc1nc(CC)c(C(=O)OCc2ccccc2C(=O)c2ccccc2)n1Cc1ccc(-c2ccccc2S(=O)(=O)NC(=O)OCCc2ccccc2)cc1F | 0.57 | 0.69
43 | CCCc1nc(CC)c(C(=O)OCc2cccc(C(=O)c3ccccc3)c2)n1Cc1ccc(-c2ccccc2S(=O)(=O)NC(=O)OCCC(C)C)cc1F | 0.6 | 0.9
44 | CCCOC(=O)NS(=O)(=O)c1ccccc1-c1ccc(Cn2c(CCC)nc(CC)c2C(=O)OCc2ccccc2-c2ccsc2)c(F)c1 | 0.3 | 20
45 | CCCCOC(=O)NS(=O)(=O)c1ccccc1-c1ccc(Cn2c(CCC)nc(CC)c2C(=O)OCc2ccccc2Oc2ccccc2)c(F)c1 | 0.6 | 3
46 | CCCc1nc(CC)c(C(=O)OCc2cccc(C(=O)c3ccccc3)c2)n1Cc1ccc(-c2ccccc2-c2nn[nH]n2)cc1 | 9 | 1000
47 | CCCc1nc(CC)c(C(=O)OCc2ccccc2C(=O)c2ccccc2)n1Cc1ccc(-c2ccccc2S(=O)(=O)NC(=O)OCC(C)C)cc1F | 0.5 | 1
48 | CCCc1nc(CC)c(C(=O)OCc2ccccc2[S+]([O-])c2ccccc2)n1Cc1ccc(-c2ccccc2S(=O)(=O)NC(=O)OCCC(C)C)cc1F (centres undefined) | 0.2 | 2
49 | CCCc1nc(CC)c(C(=O)OCC#CC(=O)N(c2ccccc2)c2ccccc2)n1Cc1ccc(-c2ccccc2-c2nn[nH]n2)cc1 | 40 | 600
50 | CCCc1nc(CC)c(C(=O)OCc2ccccc2-c2cccs2)n1Cc1ccc(-c2ccccc2S(=O)(=O)NC(=O)OCCC(C)C)cc1F | 0.8 | 3
51 | CCCc1nc(CC)c(C(=O)OCc2ccccc2-c2ccsc2)n1Cc1ccc(-c2ccccc2S(=O)(=O)NC(=O)OCCC(C)C)cc1F | 0.6 | 20
52 | CCCc1nc(CC)c(C(=O)OC(C(=O)c2ccccc2)c2ccccc2)n1Cc1ccc(-c2ccccc2S(=O)(=O)NC(=O)OCCC(C)C)cc1F (centres undefined) | 0.8 | 3
